The subject of data set [1] is ATR pathway. Kind of data set: ATR pathway markers in mouse liver after cisplatin injection at CT08 or CT20 (immunoblotting). The format is in vivo. The protocol: Before sacrificing C57BL/6J male mouse, the animal was placed under an environment where the daytime and nighttime were maintained for 12 hours each […], during 2 weeks. After exposing the mouse to CO2 and putting the animal to death, the liver of the mouse was cut into pieces having a size of less than 2 mm and washed with phosphate buffer saline (PBS), followed by freezing the same in liquid nitrogen. The frozen liver piece was pulverized using a ceramic mortar and pestle under liquid nitrogen to prepare a whole cell fusion. An extract of cytoplasm and nucleus protoplasm as well as the whole cell fusion were prepared. A chromatin-rich part could be obtained by treating 10-U DNase I (Promega) and 100-U micrococcal nuclease at 30° C. for 30 minutes and from the nucleus protoplasm through extraction using fillets. Each part was analyzed by SDS-PAGE and both of Ponceau S staining and immunoblotting. According to typical immunoblotting orders, amounts of proteins were determined using the above parts. For quantification of the immunoblotting, ImageQuant 5.2 software (Molecular Dynamics) was used. Antibodies used in the experiments were as follows: GAPDH, p-Chk1 5345, p53, p-p53 S15 (Cell Signaling Technology), ATR, RPA70 (Replication Protein A), Chk1, Actin (Santa Cruz Biotechnology), Clock, Cry1, Cry2, p-MCM2 5108, Tim (Timeless), Tipin (Bethyl Laboratory), histone H3 (Millipore), Per2 (BD Biosciences) and platinum GpG (Oncolyze). Tim and Cry1, Tim protein complexes were precipitated using protein A/G-coupled sepharose (Sigma) collected beforehand as well as an anti-Tim antibody. In order to detect Cry1 precipitated together with Tim, immunoblotting was implemented. In the present disclosure, CT refers to a time having passed from a time period when the bio-cyclic rhythm was induced. For instance, CT08 means 8 hours after the induction of the bio-cyclic rhythm, and CT20 means 20 hours after the induction of the bio-cyclic rhythm. […]

Data set [2] relates to WT MEFs cells. The data set can be described thus: removal of Platinum-GpG adducts after cisplatin in forskolin-synchronized cells (immunoslot blotting). The format is cell-based, mouse. The following applies: cisplatin given 12 hours vs 24 hours after forskolin treatment. Here is the method:
For cell culture, 1 ml of 10% (vol/vol) fetal bovine serum (FBS, Hyclone Co.) was added to 10 ml of Dulbecco's modified Eagle's medium (DMEM), followed by adding 100 μl of 1% (vol/vol) penicillin-streptomycin thereto. Then, NIH3T3 cells, wild-type mouse embryo fibroblasts (WT MEFs), and mouse embryo fibroblasts free from cryptochrome 1 (Cry1) and cryptochrome 2(Cry2) (Cry^DKO MEFs), respectively, were cultured in the above prepared culture medium. For bio-cycle synchronization, fused cells were further cultured for additional three (3) days after adding […] forskolin to the above medium. After separating genomic DNA from MEFs cells using QIAamp DNA Mini kit (Qiagen), […] of genomic DNA was moved to a nitrocellulose membrane by a BioDot SF Microfiltration apparatus (BioRad). The genomic DNA was heated at 80° C. for 2 hours under vacuum to be bound to the nitrocellulose membrane. Using a mono-antibody specifically recognizing Platinum-GpG adducts (Oncolyze), an amount of DNA damaged by cisplatin was relatively measured. Then, it may be identified whether DNA bound to the nitrocellulose membrane is quantified on Gel-doc after staining the DNA with Sybr-gold as a DNA staining reagent.

The conditions of data set [3]: i.p. injection; cited from earlier work.
In data set [4] the test system is cryptochrome 1 (Cry1). The data set can be described thus: Cry1 expression over time after forskolin bio-cycle synchronization in WT MEFs (immunoblotting). The data set is classed as cell-based, mouse. The protocol:
(§1) For cell culture, 1 ml of 10% (vol/vol) fetal bovine serum (FBS, Hyclone Co.) was added to 10 ml of Dulbecco's modified Eagle's medium (DMEM), followed by adding 100 μl of 1% (vol/vol) penicillin-streptomycin thereto. Then, NIH3T3 cells, wild-type mouse embryo fibroblasts (WT MEFs), and mouse embryo fibroblasts free from cryptochrome 1 (Cry1) and cryptochrome 2(Cry2) (Cry^DKO MEFs), respectively, were cultured in the above prepared culture medium. For bio-cycle synchronization, fused cells were further cultured for additional three (3) days after adding […] forskolin to the above medium. An extract of cytoplasm and nucleus protoplasm as well as the whole cell fusion were prepared. A chromatin-rich part could be obtained by treating 10-U DNase I (Promega) and 100-U micrococcal nuclease at 30° C. for 30 minutes and from the nucleus protoplasm through extraction using fillets. Each part was analyzed by SDS-PAGE and both of Ponceau S staining and immunoblotting. According to typical immunoblotting orders, amounts of proteins were determined using the above parts. For quantification of the immunoblotting, ImageQuant 5.2 software (Molecular Dynamics) was used. […]
In general terms: In western blotting, separated proteins are transferred to a membrane and probed.

Data set [5] deals with ATR. The data set can be described thus: phosphorylation of p53 and Chk1 (proxy marker of ATR) after UV radiation in forskolin-synchronized cells. The following applies: NIH3T3 cells. The format is cell-based, mouse. The protocol:
as §1, with “above medium. For UV radiation, using a germicidal lamp (GE) mainly emitting UV-C beam, UV light was emitted to the fused cells by 5 J/m^2. Then, a fluorescence rate of the incident beam was measured using a UV-C sensor. An extract” for “above medium. An extract”

Some results are limits rather than exact numbers.

On to `N.N.[Cl][Pt][Cl]` [cisplatin], for which the “accumulation of replicated protein A (RPA70) in chromatin” value in data set [1] (liver chromatin, after cisplatin injection at CT20) is reported as “accumulation of replicated protein A was identified in chromatin”. The “p-MCM2 signal, mouse at CT20 as compared to the mouse at CT08” value in data set [1] (mouse liver, at 8 hours or later after the cisplatin injection) is listed as at least 2 times. In addition, the “extents of expression of p-Chk1 and p-p53” value in data set [1] (mouse liver, cisplatin injected at CT08 and CT20) is reported as “insignificant”. Moreover, in data set [2], the “removal rate of Platinum-GpG” value is “higher at 12 hours after forskolin treatment”. Also, the “time until cisplatin reaches the liver” value in data set [3] is reported as “about 2 hours”.

On to `C=C[C@@]1(C)CC(=O)[C@]2(O)[C@@]3(C)[C@@H](O)CCC(C)(C)[C@@H]3[C@H](O)[C@H](OC(C)=O)[C@@]2(C)O1` [forskolin], for which, in data set [4], the “time of maximum expression of cryptochrome 1 (Cry1) after forskolin treatment” value was found to be 12 h and the “time of minimum expression of cryptochrome 1 (Cry1) after forskolin treatment” value worked out at 24 h. In addition, the “extent of phosphorylation of p53 and Chk1, cell 12 hours after forskolin treatment as compared to cell 24 hours after” value in data set [5] lay within 2 to 3 times.

The record behind these values is US9884086B2, “Administration method for anticancer drugs” (Dong-A University Research Foundation for Industry—Academy …, priority 2014, dated 2018).
